According to patent US20140155389A1, “BICYCLIC INHIBITORS OF ALK” (ABBVIE INC., priority 2011, published 2014):

What follows are molecules tested against T1, ALK (Homo sapiens, UniProt Q9UM73) (assay: ALK kinase assay (HTRF)). Settings: apparent Ki from IC50 by Cheng-Prusoff; ALK (Millipore) 3 nM or 4 nM, 50 μM ATP, 1 h at room temperature; read-out: HTRF_ALK Human - Ki.
T1 construct: purchased Millipore
Assay type: biochemical

T1 sequence (Q9UM73 19-1620): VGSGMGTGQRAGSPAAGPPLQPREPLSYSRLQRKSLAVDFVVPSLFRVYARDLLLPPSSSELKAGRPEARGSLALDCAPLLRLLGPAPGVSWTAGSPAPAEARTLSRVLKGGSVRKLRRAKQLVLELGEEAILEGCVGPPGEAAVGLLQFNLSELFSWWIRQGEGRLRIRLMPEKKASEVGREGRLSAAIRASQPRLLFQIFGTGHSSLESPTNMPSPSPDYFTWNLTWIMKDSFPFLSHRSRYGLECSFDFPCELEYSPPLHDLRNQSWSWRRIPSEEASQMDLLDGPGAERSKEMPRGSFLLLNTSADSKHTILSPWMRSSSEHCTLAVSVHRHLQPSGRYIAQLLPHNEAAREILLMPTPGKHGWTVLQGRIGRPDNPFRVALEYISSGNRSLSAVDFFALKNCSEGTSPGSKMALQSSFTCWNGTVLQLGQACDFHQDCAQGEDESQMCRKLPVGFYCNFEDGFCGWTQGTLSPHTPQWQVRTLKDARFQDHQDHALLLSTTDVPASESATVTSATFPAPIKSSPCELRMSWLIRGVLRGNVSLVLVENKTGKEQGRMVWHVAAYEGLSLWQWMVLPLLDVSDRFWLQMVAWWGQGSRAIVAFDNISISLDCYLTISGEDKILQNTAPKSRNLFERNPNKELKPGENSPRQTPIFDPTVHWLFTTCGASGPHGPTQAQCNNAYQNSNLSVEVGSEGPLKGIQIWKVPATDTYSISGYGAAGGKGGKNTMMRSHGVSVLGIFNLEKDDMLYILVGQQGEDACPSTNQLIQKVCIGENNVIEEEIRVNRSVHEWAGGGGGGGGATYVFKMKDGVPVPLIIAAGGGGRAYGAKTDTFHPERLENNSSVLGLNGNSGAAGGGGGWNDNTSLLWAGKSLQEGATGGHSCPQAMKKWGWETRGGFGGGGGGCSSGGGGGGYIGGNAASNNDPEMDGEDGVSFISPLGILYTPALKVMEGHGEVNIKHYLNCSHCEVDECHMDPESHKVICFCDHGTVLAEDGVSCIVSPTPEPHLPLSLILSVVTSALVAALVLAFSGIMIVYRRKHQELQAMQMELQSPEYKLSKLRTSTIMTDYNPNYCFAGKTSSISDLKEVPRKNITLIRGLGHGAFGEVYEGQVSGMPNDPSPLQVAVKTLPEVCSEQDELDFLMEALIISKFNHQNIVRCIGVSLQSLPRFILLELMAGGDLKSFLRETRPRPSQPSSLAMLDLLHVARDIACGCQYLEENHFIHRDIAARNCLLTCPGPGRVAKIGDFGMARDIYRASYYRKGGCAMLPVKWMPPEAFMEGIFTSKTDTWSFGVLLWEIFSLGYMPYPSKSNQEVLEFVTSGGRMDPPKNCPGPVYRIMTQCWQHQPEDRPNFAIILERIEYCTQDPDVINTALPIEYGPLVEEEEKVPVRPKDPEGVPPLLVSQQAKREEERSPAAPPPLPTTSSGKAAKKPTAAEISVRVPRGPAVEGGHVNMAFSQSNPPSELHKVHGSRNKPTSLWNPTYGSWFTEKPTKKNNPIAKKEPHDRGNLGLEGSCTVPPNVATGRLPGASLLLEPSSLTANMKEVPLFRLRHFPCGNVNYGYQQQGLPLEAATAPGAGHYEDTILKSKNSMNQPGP

Ki	SMILES
6 nM	COc1cc(N2CCNCC2)ccc1Nc1nc(Oc2ccccc2C#N)cc2cn[nH]c(=O)c12 [Example 115, 2-[(5-{[2-methoxy-4-(piperazin-1-yl)phenyl]amino}-4-oxo-3,4-dihydropyrido[3,4-d]pyridazin-7-yl)oxy]benzonitrile]
660 nM	COc1cc(N2CCNCC2)ccc1Nc1cc(Cc2c(Cl)cccc2Cl)nc2c1C(=O)NCCN2 [Example 3, 8-(2,6-dichlorobenzyl)-6-{[2-methoxy-4-(piperazin-1-yl)phenyl]amino}-1,2,3,4-tetrahydro-5H-pyrido[2,3-e][1,4]diazepin-5-one]
1 nM	O=c1[nH]ncc2cc(Cc3c(Cl)cccc3Cl)nc(Nc3ccc(N4CCNCC4)c(Cl)c3)c12 [Example 13, 5-{[3-chloro-4-(piperazin-1-yl)phenyl]amino}-7-(2,6-dichlorobenzyl)pyrido[3,4-d]pyridazin-4(3H)-one]
16 nM	COc1cc(C2CCNCC2)ccc1Nc1cc(Cc2ccccc2F)nc2cn[nH]c(=O)c12 [Example 107, 2-(2-fluorobenzyl)-4-{[2-methoxy-4-(piperidin-4-yl)phenyl]amino}pyrido[2,3-d]pyridazin-5(6H)-one]
20 nM	O=c1[nH]ncc2cc(Oc3ccccc3Cl)nc(Nc3ccc(N4CCNCC4)cn3)c12 [Example 103, 7-(2-chlorophenoxy)-5-{[5-(piperazin-1-yl)pyridin-2-yl]amino}pyrido[3,4-d]pyridazin-4(3H)-one]
7 nM	Oc1nncc2cc(N3CCC(F)CC3)nc(Nc3ccc(CN4CCCC4)cc3Cl)c12 [Example 90, 5-{[2-chloro-4-(pyrrolidin-1-ylmethyl)phenyl]amino}-7-(4-fluoropiperidin-1-yl)pyrido[3,4-d]pyridazin-4-ol]
25 nM	O=c1[nH]ncc2cc(Cc3c(Cl)cccc3Cl)nc(Nc3c(F)cc(N4CCNCC4)cc3F)c12 [Example 42, 7-(2,6-dichlorobenzyl)-5-{[2,6-difluoro-4-(piperazin-1-yl)phenyl]amino}pyrido[3,4-d]pyridazin-4(3H)-one]
8 nM	CCOc1cc(N2CCNCC2)ccc1Nc1nc(Oc2ccccc2Cl)cc2cnnc(O)c12 [Example 114, 7-(2-chlorophenoxy)-5-{[2-ethoxy-4-(piperazin-1-yl)phenyl]amino}pyrido[3,4-d]pyridazin-4-ol]
9 nM	COc1cc(N2CCNCC2)ccc1Nc1nc(Nc2ncccc2Cl)cc2cn[nH]c(=O)c12 [Example 50, 7-[(3-chloropyridin-2-yl)amino]-5-{[2-methoxy-4-(piperazin-1-yl)phenyl]amino}pyrido[3,4-d]pyridazin-4(3H)-one]
21 nM	Oc1nncc2cc(Cc3c(Cl)cccc3Cl)nc(Nc3ccc(N4CCNCC4)cc3OC(F)(F)F)c12 [Example 64, 7-(2,6-dichlorobenzyl)-5-{[4-(piperazin-1-yl)-2-(trifluoromethoxy)phenyl]amino}pyrido[3,4-d]pyridazin-4-ol]
2 nM	O=c1[nH]ncc2cc(Cc3c(Cl)cccc3Cl)nc(Nc3ccc(N4CCNCC4)cc3Cl)c12 [Example 57, 5-{[2-chloro-4-(piperazin-1-yl)phenyl]amino}-7-(2,6-dichlorobenzyl)pyrido[3,4-d]pyridazin-4(3H)-one]
2 nM	COc1cc(N2CCNCC2)ccc1Nc1nc(Nc2c(Cl)cccc2Cl)cc2cnnc(O)c12 [Example 10, 7-[(2,6-dichlorophenyl)amino]-5-{[2-methoxy-4-(piperazin-1-yl)phenyl]amino}pyrido[3,4-d]pyridazin-4-ol]
1.4 nM	COc1cc(N2CCNCC2)ccc1Nc1nc(Cc2c(Cl)cccc2Cl)cc2cnnc(O)c12 [Example 2, 7-(2,6-dichlorobenzyl)-5-{[2-methoxy-4-(piperazin-1-yl)phenyl]amino}pyrido[3,4-d]pyridazin-4-ol]
1 nM	Cc1cc(Nc2nc(Cc3c(Cl)cccc3Cl)cc3cn[nH]c(=O)c23)ccc1N1CCNCC1 [Example 7, 7-(2,6-dichlorobenzyl)-5-{[3-methyl-4-(piperazin-1-yl)phenyl]amino}pyrido[3,4-d]pyridazin-4(3H)-one]
2 nM	COc1cc(N2CCNCC2)ccc1Nc1nc(Nc2c(F)cccc2F)cc2cn[nH]c(=O)c12 [Example 32, 7-[(2,6-difluorophenyl)amino]-5-{[2-methoxy-4-(piperazin-1-yl)phenyl]amino}pyrido[3,4-d]pyridazin-4(3H)-one]
13 nM	O=c1[nH]ncc2cc(Cc3c(Cl)cccc3Cl)nc(Nc3ccc(N4CCNCC4)cn3)c12 [Example 14, 7-(2,6-dichlorobenzyl)-5-{[5-(piperazin-1-yl)pyridin-2-yl]amino}pyrido[3,4-d]pyridazin-4(3H)-one]
3 nM	COc1cc(N2CCN(C3CCN(C)CC3)CC2)ccc1Nc1nc(Cc2c(Cl)cccc2Cl)cc2cn[nH]c(=O)c12 [Example 15, 7-(2,6-dichlorobenzyl)-5-({2-methoxy-4-[4-(1-methylpiperidin-4-yl)piperazin-1-yl]phenyl}amino)pyrido[3,4-d]pyridazin-4(3H)-one]

Ki	SMILES
10 nM	COc1cc(N2CCN3CCCC3C2)ccc1Nc1nc(Cc2c(Cl)cccc2Cl)cc2cn[nH]c(=O)c12 (stereo not shown) [Example 66, 7-(2,6-dichlorobenzyl)-5-{[4-(hexahydropyrrolo[1,2-a]pyrazin-2(1H)-yl)-2-methoxyphenyl]amino}pyrido[3,4-d]pyridazin-4(3H)-one]
3 nM	COc1cc(N2CCNCC2)ccc1Nc1nc(Nc2ccncc2Cl)cc2cn[nH]c(=O)c12 [Example 60, 7-[(3-chloropyridin-4-yl)amino]-5-{[2-methoxy-4-(piperazin-1-yl)phenyl]amino}pyrido[3,4-d]pyridazin-4(3H)-one]
5 nM	COc1cc(N2CCNCC2)ccc1Nc1nc(Nc2nccs2)cc2cn[nH]c(=O)c12 [Example 56, 5-{[2-methoxy-4-(piperazin-1-yl)phenyl]amino}-7-(1,3-thiazol-2-ylamino)pyrido[3,4-d]pyridazin-4(3H)-one]
> 4700 nM	COc1cc(N2CCN(S(=O)(=O)C(C)C)CC2)ccc1Nc1nc(Cc2c(Cl)cccc2Cl)cc2cnnc(O)c12 [Example 11, 7-(2,6-dichlorobenzyl)-5-({2-methoxy-4-[4-(propan-2-ylsulfonyl)piperazin-1-yl]phenyl}amino)pyrido[3,4-d]pyridazin-4-ol]
5 nM	COc1cc(N2CCNCC2)ccc1Nc1nc(Oc2ccc(Cl)c(Cl)c2Cl)cc2cnnc(O)c12 [Example 84, 5-{[2-methoxy-4-(piperazin-1-yl)phenyl]amino}-7-(2,3,4-trichlorophenoxy)pyrido[3,4-d]pyridazin-4-ol]
2 nM	COc1cc(N2CCNCC2)ccc1Nc1nc(Nc2cccc(Cl)c2Cl)cc2cn[nH]c(=O)c12 [Example 51, 7-[(2,3-dichlorophenyl)amino]-5-{[2-methoxy-4-(piperazin-1-yl)phenyl]amino}pyrido[3,4-d]pyridazin-4(3H)-one]
53 nM	COc1cc(N2CCNCC2)ccc1Nc1nc(NCCc2ccccn2)cc2cnnc(O)c12 [Example 47, 5-{[2-methoxy-4-(piperazin-1-yl)phenyl]amino}-7-{[2-(pyridin-2-yl)ethyl]amino}pyrido[3,4-d]pyridazin-4-ol]
1 nM	COc1cc(N2CCNCC2)ccc1Nc1nc(Oc2c(Cl)cc(F)cc2Cl)cc2cn[nH]c(=O)c12 [Example 80, 7-(2,6-dichloro-4-fluorophenoxy)-5-{[2-methoxy-4-(piperazin-1-yl)phenyl]amino}pyrido[3,4-d]pyridazin-4(3H)-one]
75 nM	COc1cc(C2CCNCC2)ccc1Nc1cc(CCC2CC2)nc2cn[nH]c(=O)c12 [Example 104, 2-(2-cyclopropylethyl)-4-{[2-methoxy-4-(piperidin-4-yl)phenyl]amino}pyrido[2,3-d]pyridazin-5(6H)-one]
3 nM	COc1cc(N2CCN(C(=O)CN(C)C)CC2)ccc1Nc1nc(Cc2c(Cl)cccc2Cl)cc2cnnc(O)c12 [Example 12, 1-[4-(4-{[7-(2,6-dichlorobenzyl)-4-hydroxypyrido[3,4-d]pyridazin-5-yl]amino}-3-methoxyphenyl)piperazin-1-yl]-2-(dimethylamino)ethanone]
4 nM	Oc1nncc2cc(NCC3CC3)nc(Nc3ccc(CN4CCCC4)cc3Cl)c12 [Example 93, 5-{[2-chloro-4-(pyrrolidin-1-ylmethyl)phenyl]amino}-7-[(cyclopropylmethyl)amino]pyrido[3,4-d]pyridazin-4-ol]
13 nM	COc1cc(N2CCNCC2)ccc1Nc1nc(Nc2cccnc2)cc2cn[nH]c(=O)c12 [Example 44, 5-{[2-methoxy-4-(piperazin-1-yl)phenyl]amino}-7-(pyridin-3-ylamino)pyrido[3,4-d]pyridazin-4(3H)-one]
33 nM	COc1cc(CN2CCN(C)CC2)ccc1Nc1cc(Cc2ccccc2Cl)nc2cn[nH]c(=O)c12 [Example 116, 2-(2-chlorobenzyl)-4-({2-methoxy-4-[(4-methylpiperazin-1-yl)methyl]phenyl}amino)pyrido[2,3-d]pyridazin-5(6H)-one]
3100 nM	COc1cc(CC(=O)N2CCCC2)ccc1Nc1nc(Cc2c(Cl)cccc2Cl)cc2cn[nH]c(=O)c12 [Example 18, 7-(2,6-dichlorobenzyl)-5-({2-methoxy-4-[2-oxo-2-(pyrrolidin-1-yl)ethyl]phenyl}amino)pyrido[3,4-d]pyridazin-4(3H)-one]
6 nM	COc1cc(N2CCNCC2)ccc1Nc1nc(NC2CCOCC2)cc2cnnc(O)c12 [Example 55, 5-{[2-methoxy-4-(piperazin-1-yl)phenyl]amino}-7-(tetrahydro-2H-pyran-4-ylamino)pyrido[3,4-d]pyridazin-4-ol]
> 4700 nM	COc1cc(N2CCN(CCC(C)C)CC2)ccc1Nc1nc(Cc2c(Cl)cccc2Cl)cc2cn[nH]c(=O)c12 [Example 16, 7-(2,6-dichlorobenzyl)-5-({2-methoxy-4-[4-(3-methylbutyl)piperazin-1-yl]phenyl}amino)pyrido[3,4-d]pyridazin-4(3H)-one]
> 470 nM	COc1cc(N2CCN(C(=O)c3ccccc3)CC2)ccc1Nc1nc(Cc2c(Cl)cccc2Cl)cc2cnnc(O)c12 [Example 9, [4-(4-{[7-(2,6-dichlorobenzyl)-4-hydroxypyrido[3,4-d]pyridazin-5-yl]amino}-3-methoxyphenyl)piperazin-1-yl](phenyl)methanone]
